Results: US9617237B2, “Partially saturated tricyclic compounds and methods of making and using same” (Zafgen, Inc., priority 2011, dated 2017)

molecular target: T1, recombinant human MetAP2 (Homo sapiens, UniProt P50579); assay: Inhibition of recombinant human MetAP2 activity (fluorescence, MAS substrate, amino acid oxidase/Amplex red); type: biochemical; settings: manganese enzyme; 0.75 mM Methionine-Alanine-Serine (MAS) substrate; 30 minutes at 25° C.; pH 7.5; 1% DMSO
T1 construct: made in house; host or cells: Sf9 insect cells
Protocol: Compounds are tested for their capacity to inhibit recombinant human MetAP2 activity using the following assay.
Human recombinant MetAP2 expressed in Sf9 cells followed by affinity purification and EDTA treatment to remove endogenous active site cation was dialysed against MnCl2 to produce the manganese enzyme used in the assay. The assay was carried out for 30 minutes at 25° C. in 50 mM HEPES buffer containing 100 mM NaCl, pH 7.5 the presence of 0.75 mM Methionine-Alanine-Serine (MAS) substrate and 50 μg/ml amino acid oxidase using a dilution of purified MetAP2 giving >3-fold signal: noise. Cleavage of the substrate by MetAP2 and oxidation of free methionine by amino acid oxidase was detected and quantified using fluorescence generated by Amplex red (10-acetyl-3,7-dihydroxyphenoxazine) in combination with horseradish peroxidase which detects H2O2 released during the oxidation step. The fluorescent signal was detected using a multiwell fluorimeter. Compounds were diluted in DMSO prior to addition to assay buffer, the final DMSO concentration in the assay being 1%.
IC50 values are calculated using the XLfit software package (version 2.0.5).

T1 sequence (P50579 whole entry): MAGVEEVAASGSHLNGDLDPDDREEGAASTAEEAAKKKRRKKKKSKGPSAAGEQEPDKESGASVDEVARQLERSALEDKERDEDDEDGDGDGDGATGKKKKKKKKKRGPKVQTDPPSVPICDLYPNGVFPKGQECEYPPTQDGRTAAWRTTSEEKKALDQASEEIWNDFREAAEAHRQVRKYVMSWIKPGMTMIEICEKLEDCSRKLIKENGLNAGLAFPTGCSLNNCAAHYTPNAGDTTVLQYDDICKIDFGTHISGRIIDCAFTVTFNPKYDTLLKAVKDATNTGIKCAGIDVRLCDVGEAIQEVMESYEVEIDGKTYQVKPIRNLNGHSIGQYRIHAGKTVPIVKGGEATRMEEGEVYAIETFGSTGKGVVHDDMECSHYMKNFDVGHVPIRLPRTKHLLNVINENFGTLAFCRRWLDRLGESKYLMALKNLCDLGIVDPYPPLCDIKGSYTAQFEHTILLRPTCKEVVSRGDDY

Row | IC50 | SMILES
1 | 50 to 500 nM | CCN1CCN(Cc2cc(F)ccc2S(=O)(=O)Nc2ccc3c(c2C(=O)O)OC[C@@H]2C[C@H]32)C(=O)C1 (racemic) [(1aRS,7bSR)-5-[2-(4-Ethyl-2-oxopiperazin-1-ylmethyl)-4-fluorobenzene-sulfonylamino]-1,1a,2,7b-tetrahydrocyclopropa-[c]chromene-4-carboxylic acid]
2 | < 50 nM | CN(C)CCCCCNc1ccccc1S(=O)(=O)Nc1ccc2c(c1C(=O)O)OC[C@@H]1C[C@H]21 (racemic) [(1aRS,7bSR)-5-[2-(5-Dimethylaminopentylamino)benzene-sulfonylamino]-1,1a,2,7b-tetrahydrocyclopropa[c]chromene-4-carboxylic acid]
3 | < 50 nM | CCN(CC)C/C(C)=C\c1cc(F)ccc1S(=O)(=O)Nc1ccc2c(c1C(=O)O)OC[C@@H]1C[C@H]21 (racemic) [(1aRS,7bSR)-5-[2-((Z)-3-Diethylamino-2-methylprop-1-enyl)-4-fluorobenzene-sulfonylamino]-1,1a,2,7b-tetrahydrocyclopropa-[c]chromene-4-carboxylic acid]
4 | < 50 nM | CCN(CC)C/C=C\c1cc(F)ccc1S(=O)(=O)Nc1ccc2c(c1C(=O)O)OCC1C2C1(F)F (racemic) [(1aRS,7bSR)-5-[2-((Z)-3-Diethylaminoprop-1-enyl)-4-fluorobenzene-sulfonylamino]-1,1-difluoro-1,1a,2,7b-tetrahydrocyclopropa[c]chromene-4-carboxylic acid]
5 | 50 to 500 nM | CCN1CC(CCc2cc(F)ccc2S(=O)(=O)Nc2ccc3c(c2C(=O)O)OC[C@@H]2C[C@H]32)C1 (racemic) [(1aRS,7bSR)-5-{2-[2-(1-Ethylazetidin-3-yl)ethyl]-4-fluoro-benzenesulfonyl-amino}-1,1a,2,7b-tetrahydrocyclopropa-[c]chromene-4-carboxylic acid]
6 | 50 to 500 nM | CCN1CCN(CCc2cc(F)ccc2S(=O)(=O)Nc2ccc3c(c2C(=O)O)OC[C@@H]2C[C@H]32)CC1 (racemic) [(1aRS,7bSR)-5-{2-[2-(4-Ethylpiperazin-1-yl)-ethyl]-4-fluorobenzenesulfonylamino}-1,1a,2,7b-tetrahydrocyclopropa[c]chromene-4-carboxylic acid]
7 | 50 to 500 nM | O=C(O)c1c(NS(=O)(=O)c2ccc(F)cc2CCN2CCCC2)ccc2c1OC[C@@H]1C[C@H]21 (racemic) [(1aRS,7bSR)-5-{2-[2-(Pyrrolidin-1-yl)-ethyl]-4-fluorobenzene-sulfonylamino}-1,1a,2,7b-tetrahydrocyclopropa[c]chromene-4-carboxylic acid]
8 | > 500 nM | CN(C)CCCCN(C)c1ccccc1S(=O)(=O)Nc1ccc2c(c1C(=O)O)OC[C@@H]1C[C@H]21 (racemic) [(1aRS,7bSR)-5-{2-[N-(4-Dimethylaminobutyl)-N-methylamino]-benzenesulfonyl-amino}-1,1a,2,7b-tetrahydrocyclopropa-[c]chromene-4-carboxylic acid]
9 | 50 to 500 nM | O=C(O)c1c(NS(=O)(=O)c2ccc(F)cc2/C=C\CN2CCC2)ccc2c1OC[C@@H]1C[C@H]21 (racemic) [(1aRS,7bSR)-5-{2[(Z)-3-(Azetidin-1-yl)prop-1-enyl]-4-fluorobenzene-sulfonylamino}-1,1a,2,7b-tetrahydro-cyclopropa[c]chromene-4-carboxylic acid]

Row | SMILES | IC50
10 | O=C(O)c1c(NS(=O)(=O)c2ccccc2N[C@H]2CN3CCC2CC3)ccc2c1OCC1CC21 (mixture of isomers) [(1aRS,7bSR)-5-{2-[((R)-1-Azabicyclo[2.2.2]oct-3-yl)amino]benzenesulfonyl-amino}-1,1a,2,7b-tetrahydrocyclopropa[c]chromene-4-carboxylic acid] | < 50 nM
11 | O=C(O)c1c(NS(=O)(=O)c2ccccc2N[C@@H]2CN3CCC2CC3)ccc2c1OCC1CC21 (mixture of isomers) [(1aRS,7bSR)-5-{2-[((S)-1-Azabicyclo[2.2.2]oct-3-yl)amino]benzenesulfonyl-amino}-1,1a,2,7b-tetrahydrocyclopropa[c]chromene-4-carboxylic acid] | 50 to 500 nM
